The source of these data is patent US10011616B2, “Boron-containing small molecules as antiprotozoal1 agents” (MMV MEDICINES FOR MALARIA VENTURE, priority 2015, dated 2018).

Assay [1] concerns W2 strain of Plasmodium falciparum. The experiment in a line: In vitro activity against W2 strain of Plasmodium falciparum (YOYO-1 flow cytometry). Conditions: Erythrocyte, 48 h, P. falciparum W2 in human erythrocytes, 2 d, growth inhibition, read-out: IC50: 1 Org. Growth P. falciparum W2, 2 d (LPS_00451). It is filed as cell-based. The protocol:
In Vitro Activity Against Plasmodium falciparum
b) Against W2 Strain of Plasmodium falciparum
W2 strain P. falciparum parasites were cultured in human erythrocytes and RPMI-1640 culture media with either 10% human serum or 0.5% Albumax serum substitute under 3% O2, 5% CO2, and 92% N2. Parasites synchronized to ring stage by treatments with 5% D-sorbitol were cultured with serial dilutions of benzoxaboroles from 5 to 10 mM stocks in 96 well microplate cultures including 200 μL of media/well, 2% hematocrit, and 1% parasitemia. At the completion of 48 h incubations, when untreated cultures contained new rings, parasites were fixed with 2% formaldehyde for 48 h, and 5 μL aliquots were transferred to another 96 well plate containing 150 μL/well of staining solution (100 mM NH4Cl, 0.1% Triton X-100, and 1 nM YOYO-1 in PBS). Parasites per erythrocyte were then determined by flow cytometry from plots of forward scatter against fluorescence (excitation 488 nm, emission 520 nm) using a FacSort flow cytometer (Beckton Dickinson) equipped with an AMS Loader (Cytek Development). All values were normalized to percent control activity, and IC50s were calculated using the Prism 3.0 program (GRAPHPAD Software). Goodness of fit was assessed by R^2 values, and meaningful dose-response curves yielded R^2 values >0.95.

Assay [2] has as its system 3D7 strain of Plasmodium falciparum. The experiment in a line: In vitro activity against 3D7 strain of Plasmodium falciparum ([3H]-hypoxanthine incorporation assay). It is filed as cell-based. To be noted: Erythrocyte, 48 h, P. falciparum 3D7 in human erythrocytes, 2 d, growth inhibition, read-out: IC50: 1 Org. Growth P. falciparum 3D7, 2 d (LPS_00570). The protocol: In Vitro Activity Against Plasmodium falciparum a) Against 3D7 Strain of Plasmodium falciparum Inhibition of 3D7 strain parasites was assessed using the [^3H]-hypoxanthine incorporation assay (Desjardins, et al. Antimicrob. Agents Chemother. 1979, 16, 710-718). Briefly, parasites were cultured in human erythrocytes (from the Spanish Red Cross blood bank) using RPMI-1640 culture media (Gibco) supplemented with 0.5% Albumax II (Invitrogen), 2% D-sucrose (Sigma-Aldrich), 0.3% glutamine (Sigma-Aldrich), and 5 mM hypoxanthine (Sigma-Aldrich). Cultures were maintained at 37° C. at an atmosphere of 5% O2, 5% CO2, and […]. To assess inhibition, asynchronous parasite cultures with 0.5% parasitemia and 2% hematocrit were exposed to 3-fold serial dilutions of test compounds for 24 hours in 96 well plate cultures (Costar #3894). After 24 hours, [^3H]-hypoxanthine was added, plates were incubated for an additional 24 hours, and parasites were harvested on glass fiber filters (Wallac #1450-421) using a cell harvester 96 (TOMTEC, Perkin Elmer). Filters were dried on scintillator sheets (MeltiLex A, PerkinElmer #1450-441) to determine incorporation of [^3H]-hypoxanthine. Radioactivity was measured using a microbeta counter (Perkin Elmer). Data are normalized using the incorporation of the positive control (infected erythrocytes without drug). IC50 values were determined using Excel and Grafit 5 software. Values were determined from at least three independent experiments, and standard deviations were calculated.

One may read the IC50 as the concentration that inhibits the measured activity by half. As for `Cc1c(Oc2cnc(C(=O)N[C@@H](CO)C(C)C)cn2)ccc2c1B(O)OC2` [Example 25, (R)—N-(1-hydroxy-3-methylbutan-2-yl)-5-(1-hydroxy-7-methyl-1,3-dihydrobenzo[c][1,2]oxaborol-6-yloxy)pyrazine-2-carboxamide], the IC50 in assay [1] is 149 nM; in assay [2] it was 466 nM.
Take `COC[C@H](CO)NC(=O)c1cnc(Oc2ccc3c(c2C)B(O)OC3)cn1` [Example 32, (S)—N-(1-hydroxy-3-methoxypropan-2-yl)-5-((1-hydroxy-7-methyl-1,3-dihydrobenzo[c][1,2]oxaborol-6-yl)oxy)pyrazine-2-carboxamide]: the results for the IC50 in assay [1] and in assay [2] were 512 nM and 796 nM, respectively.
Turning to `Cc1c(Oc2cnc(C(=O)N3CCC(C)(O)C3)cn2)ccc2c1B(O)OC2` (racemic) [Example 40, (3-hydroxy-3-methylpyrrolidin-1-yl) (5-((1-hydroxy-7-methyl-1,3-dihydrobenzo[c][1,2]oxaborol-6-yl)oxy)pyrazin-2-yl)methanone], the IC50 in assay [1] worked out at 139 nM; in assay [2], 314 nM.
For the compound `CCC[C@@H](NC(=O)c1cnc(Oc2ccc3c(c2C)B(O)OC3)cn1)C(C)(C)O` [Example 43, (R)—N-(2-hydroxy-2-methylhexan-3-yl)-5-((1-hydroxy-7-methyl-1,3-dihydrobenzo[c][1,2]oxaborol-6-yl)oxy)pyrazine-2-carboxamide], the IC50 amounted to 260 nM in assay [1] and 553 nM in assay [2].
For `CCC[C@@H](CO)NC(=O)c1cnc(Oc2ccc3c(c2C)B(O)OC3)cn1` [Example 13, (S)-5-(1-hydroxy-7-methyl-1,3-dihydrobenzo[c][1,2]oxaborol-6-yloxy)-N-(1-hydroxypentan-2-yl)pyrazine-2-carboxamide] the same measures were 297 nM and 715 nM.
As to `CCC[C@H](NC(=O)c1cnc(Oc2ccc3c(c2C)B(O)OC3)cn1)C(C)(C)O` [Example 44, (S)—N-(2-hydroxy-2-methylhexan-3-yl)-5-(1-hydroxy-7-methyl-1,3-dihydrobenzo[c][1,2]oxaborol-6-yloxy)pyrazine-2-carboxamide], the half-inhibitory concentration (IC50) turned out to be 129 nM in assay [1] and 217 nM in assay [2].
For `Cc1c(Oc2cnc(C(=O)N[C@@H]3CCC[C@@H]3O)cn2)ccc2c1B(O)OC2` (relative stereo) [Example 49, 5-((1-hydroxy-7-methyl-1,3-dihydrobenzo[c][1,2]oxaborol-6-yl)oxy)-N-(cis-2-hydroxycyclopentyl)pyrazine-2-carboxamide] the same measures were 292 nM and 181 nM.
For `Cc1c(Oc2cnc(C(=O)NC(CO)CC(C)C)cn2)ccc2c1B(O)OC2` (stereo not shown) [Example 8, N-(1-hydroxy-4-methylpentan-2-yl)-5-((1-hydroxy-7-methyl-1,3-dihydrobenzo[c][1,2]oxaborol-6-yl)oxy)pyrazine-2-carboxamide] the same measures were 930 nM and 937 nM.
For the compound `Cc1c(Oc2cnc(C(=O)NC(C)C(C)O)cn2)ccc2c1B(O)OC2` (stereo not shown) [Example 39, 5-(1-hydroxy-7-methyl-1,3-dihydrobenzo[c][1,2]oxaborol-6-yloxy)-N-(3-hydroxybutan-2-yl)pyrazine-2-carboxamide], the figures for the IC50 in assay [1] and in assay [2] were 513 nM and 1460 nM, respectively.
On to `CCC(CO)NC(=O)c1cnc(Oc2ccc3c(c2C)B(O)OC3)cn1` (stereo not shown) [Example 18, 5-(1-hydroxy-7-methyl-1,3-dihydrobenzo[c][1,2]oxaborol-6-yloxy)-N-(1-hydroxybutan-2-yl)pyrazine-2-carboxamide], for which the IC50 in assay [1] was found to be 622 nM; in assay [2], 725 nM.
Turning to `Cc1c(Oc2cnc(C(=O)N(C)CCO)cn2)ccc2c1B(O)OC2` [Example 10, 5-(1-hydroxy-7-methyl-1,3-dihydrobenzo[c][1,2]oxaborol-6-yloxy)-N-(2-hydroxyethyl)-N-methylpyrazine-2-carboxamide], the IC50 in assay [1] was found to be 262 nM; in assay [2], 437 nM.
With `CCC1(O)CN(C(=O)c2cnc(Oc3ccc4c(c3C)B(O)OC4)cn2)C1` [Example 54, (3-ethyl-3-hydroxyazetidin-1-yl)(5-((1-hydroxy-7-methyl-1,3-dihydrobenzo[c][1,2]oxaborol-6-yl)oxy)pyrazin-2-yl)methanone], the IC50 in assay [1] was determined as 28.9 nM; in assay [2], 87 nM.
For `Cc1c(Oc2cnc(C(=O)N[C@@H](CO)c3ccccc3)cn2)ccc2c1B(O)OC2` [Example 26, (R)—N-(2-hydroxy-1-phenylethyl)-5-(1-hydroxy-7-methyl-1,3-dihydrobenzo[c][1,2]oxaborol-6-yloxy)pyrazine-2-carboxamide], the figures for the IC50 in assay [1] and in assay [2] were 103 nM and 161 nM, respectively.
Consider `COCCNC(=O)c1cnc(Oc2ccc3c(c2C)B(O)OC3)cn1` [Example 2, 5-(1-hydroxy-7-methyl-1,3-dihydrobenzo[c][1,2]oxaborol-6-yloxy)-N-(2-methoxyethyl)pyrazine-2-carboxamide], for which the IC50 in assay [1] stood at 788 nM; in assay [2] it was 644 nM.
For the compound `Cc1c(Oc2cnc(C(=O)N[C@H]3CCC[C@@H]3O)cn2)ccc2c1B(O)OC2` [Example 46, 5-(1-hydroxy-7-methyl-1,3-dihydrobenzo[c][1,2]oxaborol-6-yloxy)-N-((1S,2S)-2-hydroxycyclopentyl)pyrazine-2-carboxamide], the IC50 is 149 nM in assay [1] and 537 nM in assay [2].
For the compound `Cc1c(Oc2cnc(C(=O)N[C@H](CO)CCC(F)(F)F)cn2)ccc2c1B(O)OC2` [Example 38, (S)-5-(1-hydroxy-7-methyl-1,3-dihydrobenzo[c][1,2]oxaborol-6-yloxy)-N-(5,5,5-trifluoro-1-hydroxypentan-2-yl)pyrazine-2-carboxamide], the IC50 in assay [1] was found to be 352 nM; in assay [2], 959 nM.
For `Cc1c(Oc2cnc(C(=O)N[C@@H]3CCC[C@H]3O)cn2)ccc2c1B(O)OC2` [Example 42, 5-((1-hydroxy-7-methyl-1,3-dihydrobenzo[c][1,2]oxaborol-6-yl)oxy)-N-((1R,2R)-2-hydroxycyclopentyl)pyrazine-2-carboxamide] the same measures were 133 nM and 245 nM.
Regarding `C=C[C@H](CO)NC(=O)c1cnc(Oc2ccc3c(c2C)B(O)OC3)cn1` [Example 30, (R)-5-(1-hydroxy-7-methyl-1,3-dihydrobenzo[c][1,2]oxaborol-6-yloxy)-N-(1-hydroxybut-3-en-2-yl)pyrazine-2-carboxamide], the values for the IC50 in assay [1] and in assay [2] were 317 nM and 536 nM, respectively.
Consider `Cc1c(Oc2cnc(C(=O)N[C@H](C)CO)cn2)ccc2c1B(O)OC2` [Example 11], for which the IC50 in assay [1] came out at 944 nM; in assay [2], 848 nM.
As for `Cc1c(Oc2cnc(C(=O)N[C@H](CO)CC(F)(F)F)cn2)ccc2c1B(O)OC2` [Example 34, (S)-5-(1-hydroxy-7-methyl-1,3-dihydrobenzo[c][1,2]oxaborol-6-yloxy)-N-(4,4,4-trifluoro-1-hydroxybutan-2-yl)pyrazine-2-carboxamide], the results for the IC50 in assay [1] and in assay [2] were 350 nM and 452 nM, respectively.
The corresponding values for `CC[C@H](CO)NC(=O)c1cnc(Oc2ccc3c(c2C)B(O)OC3)cn1` [Example 19, (R)-5-(1-hydroxy-7-methyl-1,3-dihydrobenzo[c][1,2]oxaborol-6-yloxy)-N-(1-hydroxybutan-2-yl)pyrazine-2-carboxamide] are 136 nM and 403 nM.
On to `Cc1c(Oc2cnc(C(=O)NC(CO)C3CC3)cn2)ccc2c1B(O)OC2` (stereo not shown) [Example 22, N-(1-cyclopropyl-2-hydroxyethyl)-5-(1-hydroxy-7-methyl-1,3-dihydrobenzo[c][1,2]oxaborol-6-yloxy)pyrazine-2-carboxamide], for which the values for the IC50 in assay [1] and in assay [2] were 458 nM and 1150 nM, respectively.
The corresponding values for `CC[C@@H](CO)NC(=O)c1cnc(Oc2ccc3c(c2C)B(O)OC3)cn1` [Example 21, (S)-5-(1-hydroxy-7-methyl-1,3-dihydrobenzo[c][1,2]oxaborol-6-yloxy)-N-(1-hydroxybutan-2-yl)pyrazine-2-carboxamide] are 704 nM and 801 nM.
